{
  "source": "patent US8841333B2",
  "about": "“Methods for treating nephrolithiasis” (Takeda Pharmaceuticals U.S.A., Inc., priority 2005, dated 2014)",
  "experiment": "Double-blind 4-week study plus open-label extension of febuxostat in hyperuricemic subjects with gout and a history of nephrolithiasis",
  "assay_type": "in vivo, human",
  "procedure": "Eighteen (18) hyperuricemic subjects with gout and a history of nephrolithiasis in their medical history were examined. Specifically, these eighteen subjects were part of a double-blind (DB) four (4) week study in which they received 40, 80 or 120 mg once daily (hereinafter referred to as “QD”) of 2-[3-cyano-4-(2-methylpropoxy)phenyl]-4-methylthiazole-5-carboxylic acid (hereinafter called “febuxostat”) or a placebo, followed by an open-label (OL) extension study of febuxostat 80 mg QD titrated to 40 mg or 120 mg QD of febuxostat based on serum uric acid levels and adverse events. The subjects were predominantly male (specifically, sixteen (16)) Caucasian, with a mean age of 55 years. Eleven (11) of the subjects had gout for more than 10 years, five (5) subjects had gout for between 5 to 10 years and two (2) subjects had gout for between 1 to 5 years. Overall, subject experienced between 1 and 20 attacks over a 2 to 45 year period prior to baseline. Twelve (12) of the subjects were classified as renally impaired (their creatinine clearance was <80 ml/minute). Six (6) subjects were considered to be uric acid overproducers (urinary uric acid excretion was greater than 800 mg/day). Comorbid conditions in these subjects included the following: hyperlipidemia (78%), hypertension (72%), obesity (56%) and coronary artery disease (17%). The mean serum urate for these subjects at baseline was 10.0 mg/dL. All subjects completed this DB study. Fifteen (15) subjects rolled over to the OL study with thirteen (13) completing treatment for a duration of greater than thirty (30) months. The majority of subjects (11/13) received daily febuxostat in the amount of 80 mg QD with two (2) subjects having their dose titrated to febuxostat 120 mg QD as per study protocol because of a post-baseline serum urate of ≧6.0 mg/dL.",
  "data": [
    {"smiles": "Cc1nc(-c2ccc(OCC(C)C)c(C#N)c2)sc1C(=O)O", "note": "[febuxostat, 2-[3-cyano-4-(2-methylpropoxy)phenyl]-4-methylthiazole-5-carboxylic acid]", "values": [
      {"measurement": "subjects reporting kidney stones", "setting": "DB and OL portions, greater than 30 months of febuxostat treatment, three stones in total, one occurred on placebo, all calcium oxalate", "value": "2 subjects out of the 18 subjects"},
      {"measurement": "adverse events", "setting": "DB and OL study, febuxostat 40-120 mg QD", "value": "self-limiting and transient"},
      {"measurement": "mean reduction in serum urate", "setting": "at last visit versus baseline, febuxostat 40, 80 or 120 mg QD", "value": 47, "unit": "%"},
      {"measurement": "mean serum urate at last visit", "setting": "hyperuricemic gout subjects with history of nephrolithiasis, febuxostat 40, 80 or 120 mg QD, baseline mean serum urate 10.0 mg/dL", "value": 5.2, "unit": "mg/dL"}
    ]}
  ]
}
